The values below are quoted from earlier work in patent publication US20050158380A1, “Sustained release oral dosage forms of gabapentin” (priority 2002, published 2005).

For the data set the following is noted: in vivo.

A word on the half-life: it is the time needed for the level to fall by half in the phase considered. For the compound `NCC1(CC(=O)O)CCCCC1` [Gabapentin, 1-(aminomethyl)cyclohexaneacetic acid], the half-life is 5 to 7 h.
